In paper PMC9230548, “Synthesis and Biological Evaluation of Novel Synthetic Indolone Derivatives as Anti-Tumor Agents Targeting p53-MDM2 and p53-MDMX” (Molecules, 2022):
Read-outs that look alike come from different tables or passages of the source.

Experiments:
MCF7 cell line = experiment: MTT assay, MCF7; format: cell-based; settings: average of three determinations
Protocol: (§1) Compounds were tested at six concentrations (0.001–100 μM).
(§2) The cells were seeded into a 96-well plate and allowed to attach overnight, after which various concentrations of test compounds or DMSO were added to the culture medium and the cells were incubated for 48 h at 37 °C in a 5% CO2 humidified incubator. Then, 20 μL of 0.5% the fresh MTT solution was added to each well. After incubation for another 4 h, the culture medium was removed and 150 μL of DMSO was added to dissolve the formazan crystals. The absorbance at 540 nm was measured using a microplate reader. The results, expressed as IC50 values, were the average of three determinations and were calculated using nonlinear regression analysis.

HCT116 cell line = experiment: MTT assay, HCT116; format: cell-based; settings: average of three determinations
Protocol: as §1, §2

A549 cell line = experiment: MTT assay, A549; format: cell-based; settings: average of three determinations
Protocol: as §1, §2

MDM2 = MDM2 (Homo sapiens, UniProt Q00987); experiment: fluorescence polarization assay, MDM2 binding
Chain of MDM2 (Q00987 whole entry): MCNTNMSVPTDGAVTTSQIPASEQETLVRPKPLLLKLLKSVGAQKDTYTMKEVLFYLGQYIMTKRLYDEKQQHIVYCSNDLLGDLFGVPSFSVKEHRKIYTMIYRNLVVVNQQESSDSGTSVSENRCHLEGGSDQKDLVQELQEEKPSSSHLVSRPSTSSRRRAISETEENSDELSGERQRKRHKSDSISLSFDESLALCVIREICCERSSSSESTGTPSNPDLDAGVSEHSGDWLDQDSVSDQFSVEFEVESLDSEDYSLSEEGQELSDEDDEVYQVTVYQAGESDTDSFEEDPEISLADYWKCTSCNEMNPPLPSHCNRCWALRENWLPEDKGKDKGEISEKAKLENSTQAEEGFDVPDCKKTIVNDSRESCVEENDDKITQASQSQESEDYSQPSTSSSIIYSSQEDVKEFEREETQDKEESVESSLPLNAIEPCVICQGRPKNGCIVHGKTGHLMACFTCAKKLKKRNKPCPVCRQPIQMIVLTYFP
Protocol: (§3) The MDM2 and MDMX binding evaluation for the target compounds was carried out using the fluorescence polarization assay.
(§4) Dose-dependent MDM2 and MDMX binding evaluations were carried out using the fluorescence polarization assay.
(§5) A total of 30 nM preincubated (30 min) MDM2 (or MDMX) and 10 nM PMDM-F peptide in reaction buffer (100 μL, potassium phosphate, 100 mM; bovine gamma globulin, 100 mg/mL; sodium azide, 0.02%) were added into a 96-well plate containing the tested compounds at pH 7.5.

MDMX = molecular target: T1, MDMX (Homo sapiens, UniProt O15151); experiment: fluorescence polarization assay, MDMX binding
T1 sequence (O15151 1-490): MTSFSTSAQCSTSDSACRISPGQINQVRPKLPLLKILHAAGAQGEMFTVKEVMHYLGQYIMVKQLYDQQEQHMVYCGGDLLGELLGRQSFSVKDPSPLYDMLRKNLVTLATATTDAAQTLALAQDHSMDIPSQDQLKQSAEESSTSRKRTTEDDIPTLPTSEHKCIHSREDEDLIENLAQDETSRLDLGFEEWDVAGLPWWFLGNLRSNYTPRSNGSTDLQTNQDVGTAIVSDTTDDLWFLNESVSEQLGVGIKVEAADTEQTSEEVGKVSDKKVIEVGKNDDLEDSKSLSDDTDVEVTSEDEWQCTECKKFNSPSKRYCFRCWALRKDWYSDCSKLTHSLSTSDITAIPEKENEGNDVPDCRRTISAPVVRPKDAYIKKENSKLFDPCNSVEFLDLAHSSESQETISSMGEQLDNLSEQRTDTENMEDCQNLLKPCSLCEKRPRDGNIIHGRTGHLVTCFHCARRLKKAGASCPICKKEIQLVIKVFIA
Protocol: as §3, §4, §5

[1] = read-out: Ki (μM) ± SD MDM2, fluorescence polarization, PMDM-F peptide, pH 7.5
[2] = read-out: Ki (μM) ± SD MDMX, fluorescence polarization, PMDM-F peptide, pH 7.5

| Structure (SMILES) | IC50 (MCF7 cell line; 48 h) | IC50 (HCT116 cell line; 48 h) | IC50 (A549 cell line; 48 h) | IC50 (MCF7 cell line; Homo sapiens, MCF7, 48 h) | IC50 (HCT116 cell line; Homo sapiens, HCT-116, 48 h) | Ki (MDM2; [1]) | melting point | IC50 (A549 cell line; Homo sapiens, A549, 48 h) | Ki (MDMX; [2]) | Ki (MDM2) | Ki (MDMX) |
| --- | --- | --- | --- | --- | --- | --- | --- | --- | --- | --- | --- |
| COc1ccc(C2=N[C@@H](c3ccc(Cl)cc3)[C@@H](c3ccc(Cl)cc3)N2C(=O)N2CCNC(=O)C2)c(OC(C)C)c1 [Nutlin-3a, reference compound] | 32.2 ± 1.49 µM | 18.1 ± 2.17 µM | 21.7 ± 2.04 µM | – | – | – | – | – | – | – | – |
| O=C1/C(=C/c2cccc(Cl)c2)c2cc(Cl)ccc2N1S(=O)(=O)c1cccc(Cl)c1 [Compound A29, (E)-5-chloro-3-(3-chlorobenzylidene)-1-((3-chlorophenyl)sulfonyl)indolin-2-one] | – | – | – | 27.4 ± 3.37 µM | 17 ± 2.37 µM | 0.28 ± 0.04 µM | 177.8 to 178.7 °C | 26.4 ± 4.05 µM | 32.2 ± 3.24 µM | – | – |
| O=C1/C(=C/c2cccc(Cl)c2)c2ccccc2N1S(=O)(=O)c1ccccc1F [Compound A18, (E)-3-(3-chlorobenzylidene)-1-((2-fluorophenyl)sulfonyl)indolin-2-one] | – | – | – | 24.7 ± 3.63 µM | 17.9 ± 2.11 µM | – | – | 22.6 ± 2.93 µM | – | 0.17 ± 0.03 µM | 17.7 ± 2.16 µM |
| O=C1/C(=C/c2cccc(Cl)c2)c2ccccc2N1S(=O)(=O)c1cccc(F)c1 [Compound A19, (E)-3-(3-chlorobenzylidene)-1-((3-fluorophenyl)sulfonyl)indolin-2-one] | – | – | – | 21 ± 2.58 µM | 10.2 ± 1.37 µM | – | – | 16.3 ± 1.82 µM | – | 0.076 ± 0.005 µM | 16.9 ± 1.74 µM |
| O=C1/C(=C/c2cccc(Cl)c2)c2ccccc2N1S(=O)(=O)c1cccc(C(F)(F)F)c1 [Compound A21, (E)-3-(3-chlorobenzylidene)-1-((3-(trifluoromethyl)phenyl)sulfonyl)indolin-2-one] | – | – | – | 15.7 ± 2.04 µM | 8.91 ± 1.35 µM | – | – | 13.5 ± 2.73 µM | – | 0.092 ± 0.007 µM | 19.3 ± 2.69 µM |
| O=C1/C(=C/c2cccc(Cl)c2)c2ccccc2N1S(=O)(=O)c1ccc(Cl)cc1 [Compound A14, (E)-3-(3-chlorobenzylidene)-1-((4-chlorophenyl)sulfonyl)indolin-2-one] | – | – | – | 20.2 ± 2.86 µM | 15.2 ± 3.14 µM | 0.082 ± 0.021 µM | 137.5 to 139.6 °C | 20.3 ± 2.49 µM | 18.2 ± 1.39 µM | – | – |
| O=C1/C(=C/c2ccccc2Cl)c2ccccc2N1S(=O)(=O)c1cccc(Cl)c1 [Compound A6, (E)-3-(2-chlorobenzylidene)-1-((3-chlorophenyl)sulfonyl)indolin-2-one] | – | – | – | 25.5 ± 3.61 µM | 10.7 ± 1.47 µM | – | – | 18.7 ± 2.49 µM | – | 0.92 ± 0.11 µM | 17.4 ± 2.78 µM |
| O=C1/C(=C/c2cccc(Cl)c2)c2ccccc2N1S(=O)(=O)c1ccccc1Cl [Compound A12, (E)-3-(3-chlorobenzylidene)-1-((2-chlorophenyl)sulfonyl)indolin-2-one] | – | – | – | 24.7 ± 2.53 µM | 15.4 ± 4.61 µM | – | 125.1 to 126.3 °C | 17.8 ± 2.19 µM | – | 0.19 ± 0.05 µM | 20.8 ± 2.01 µM |
| O=C1/C(=C/c2cccc(Cl)c2)c2ccccc2N1S(=O)(=O)c1ccc(Br)cc1 [Compound A17] | 37.7 ± 3.65 µM | 25.5 ± 3.26 µM | 34.2 ± 3.39 µM | – | – | 0.49 ± 0.15 µM | – | – | 43.2 ± 4.95 µM | – | – |
| O=C1/C(=C/c2cccc(Cl)c2)c2ccccc2N1S(=O)(=O)c1ccc(F)cc1 [Compound A20, (E)-3-(3-chlorobenzylidene)-1-((4-fluorophenyl)sulfonyl)indolin-2-one] | – | – | – | 27.2 ± 2.83 µM | 16.3 ± 2.73 µM | – | 141.7 to 143.1 °C | 22.2 ± 2.13 µM | – | 0.23 ± 0.02 µM | 29.2 ± 3.51 µM |
| O=C1/C(=C/c2cccc(Cl)c2)c2ccccc2N1S(=O)(=O)c1ccccc1Br [Compound A15] | 31.1 ± 3.55 µM | 23.8 ± 2.69 µM | 29.1 ± 3.31 µM | – | – | 0.34 ± 0.12 µM | – | – | 24.4 ± 2.57 µM | – | – |
| O=C1/C(=C/c2cccc(Cl)c2)c2ccccc2N1S(=O)(=O)c1cccc(Br)c1 [Compound A16] | 26.5 ± 3.4 µM | 21.7 ± 2.59 µM | 25.4 ± 3.62 µM | – | – | 0.079 ± 0.005 µM | – | – | 16.2 ± 1.94 µM | – | – |
| Cc1cccc(S(=O)(=O)N2C(=O)/C(=C/c3cccc(Cl)c3)c3ccccc32)c1 [Compound A10, (E)-3-(3-chlorobenzylidene)-1-(m-tolylsulfonyl)indolin-2-one] | – | – | – | – | – | 5.36 ± 1.06 µM | 147.4 to 149.2 °C | – | > 50 µM | – | – |
